Assays:
[1] = tested on: B-16 cells (malignant melanoma); assay: Malignant melanoma in mice: survival; format: in vivo
Procedure: In vivo studies were carried out to assess the effect of the above combination therapy, both in the solution form and in the microencapsulated form in the treatment of cancer, in order to examine any possible advantages of the microencapsulated form of the drugs. The cytokine levels (eg. TNFa and IL1β were also evaluated after treatment.
Male C57BL/6 mice weighing approximately 18-20 g were anesthetized with light ether vapor and were injected subcutaneously with B-16 cells (1×10^6 cells). Their weights, tumor size and survival rate (in days) were measured daily. The tumor size was followed by measuring the long axis of the tumor daily. The study began once the tumor size reached 0.5 cm in diameter. The animals were divided into control and treatment groups. The control groups received phosphate buffered saline, blank PLGA microspheres or blank albumin microspheres. The treated groups received the following dosing schedule: Methotrexate solution (2 mg/kg or 15 mg/kg) administered s.c. daily or every three days. The M-CSF solution (10 microgram/kg or 100 microgram/kg) administered i.p. daily. The MTX microspheres (2 mg/kg or 15 mg/kg) and/or the M-CSF microspheres (10 microgram/kg or 100 microgram/kg) administered s.c. and i.p. respectively, alone or in combination therapy.

[2] = tested on: OKT3 induced TNFa release; assay: Inhibition of OKT3 induced cytokine release in blood: TNFa; format: cell-based; conditions: human blood, OKT3 1 μg/mL, 37° C., 24 hr; Grp 2 OKT3+Blank MC, Grp 3 TNFa NA 1 μg/mL+IL1β NA 2 μg/mL+OKT3
Text: (§1) OKT3 is a murine monoclonal antibody to the CD3 antigen of human T cells and is used to treat transplant rejection. The high incidence of adverse reactions associated with OKT3 is thought to be related to the induction of cytokines. The purpose of this study was to determine if microencapsulated (MC) neutralizing antibodies (NA) to human TNFa and IL1β which are readily phagocytized by macrophages can inhibit the release of TNFa, IL1β, and IL6 following OKT3 challenge in vitro.
(§2) Microcapsules were prepared using the method from Example 1 using an albumin matrix. Blood was collected from 10 healthy subjects and separated into aliquots for the following groups. • Grp 1) Blank MC • Grp 2) OKT3 1 μg/mL+Blank MC • Grp 3) TNFa NA 1 μg/mL+IL1β NA 2 μg/mL+OKT3 1 μg/mL. Aliquots were incubated at 37° C. for 24 hr. Blood was assayed for TNFa, […], and IL6 at 0, 2, 6, 24 hr by ELISA. C) Results

[3] = tested on: OKT3 induced IL6 release; assay: Inhibition of OKT3 induced cytokine release in blood: IL6; format: cell-based; conditions: human blood, OKT3 1 μg/mL, 37° C., 24 hr
Text: as §1, §2

CN(Cc1cnc2nc(N)nc(N)c2n1)c1ccc(C(=O)N[C@@H](CCC(=O)O)C(=O)O)cc1 [MTX solution, methotrexate]
mean survival ([1]; 2 mg/kg s.c. every 3 days): 12.8 days | mean survival time ([1]; 15 mg/kg s.c. every 3 days): 14.2 days

OKT3: murine monoclonal antibody to the CD3 antigen of human T cells
Peak TNFa [2]: 655 ± 71 pg/mL | Peak IL6 [3]: 664 ± 60 pg/mL

B1: M-CSF solution: Macrophage colony stimulating factor in solution (protein, UniProt P09603 33-554, looked up)
Macrophage colony-stimulating …: EEVSEYCSHMIGSGHLQSLQRLIDSQMETSCQITFEFVDQEQLKDPVCYLKKAFLLVQDIMEDTMRFRDNTPNAIAIVQLQELSLRLKSCFTKDYEEHDKACVRTFYETPLQLLEKVKNVFNETKNLLDKDWNIFSKNCNNSFAECSSQDVVTKPDCNCLYPKAIPSSDPASVSPHQPLAPSMAPVAGLTWEDSEGTEGSSLLPGEQPLHTVDPGSAKQRPPRSTCQSFEPPETPVVKDSTIGGSPQPRPSVGAFNPGMEDILDSAMGTNWVPEEASGEASEIPVPQGTELSPSRPGGGSMQTEPARPSNFLSASSPLPASAKGQQPADVTGTALPRVGPVRPTGQDWNHTPQKTDHPSALLRDPPEPGSPRISSLRPQGLSNPSTLSAQPQLSRSHSSGSVLPLGELEGRRSTRDRRSPAEPEGGPASEGAARPLPRFNSVPLTDTGHERQSEGSFSPQLQESVFHLLVPSVILVLLAVGGLLFYRWRRRSHQEPQRADSPLEQPEGSPLTQDDRQVELPV
mean survival time ([1]; 10 microgram/kg i.p. daily): 14,2 days

— patent US7105158B1, “Methods of administering microencapsulated materials for immune modulated diseases” (priority 1992, dated 2006)
